In ChEMBL document CHEMBL5346880, “ATP-competitive inhibitors of human DNA topoisomerase IIα with improved antiproliferative activity based on N-phenylpyrrolamide scaffold” (Eur J Med Chem, 2023):
The source made the active and inactive calls. No cut-off for these calls is given here.

What was measured:
HCC 2998 = experiment: Cytotoxicity against human HCC 2998 cells assessed as reduction in cell viability at 10 uM by MTT assay; type: functional, cell-based
SW-620 = experiment: Cytotoxicity against human SW620 cells assessed as reduction in cell viability at 10 uM by MTT assay; type: functional, cell-based
[1] = Metabolic stability in rat liver S9 fraction assessed as half life at 100 uM measured upto 120 mins in presence of NADPH by HPLC analysis; type: ADME, subcellular
KM12 = experiment: Cytotoxicity against human KM12 cells assessed as reduction in cell viability at 10 uM by MTT assay; type: functional, cell-based
SR = experiment: Cytotoxicity against human SR cells assessed as reduction in cell viability at 10 uM by MTT assay; type: functional, cell-based
[2] = target: T1, DNA topoisomerase 2-alpha (Homo sapiens, UniProt P11388); experiment: Inhibition of human DNA topoisomerase 2 alpha assessed as relaxation of supercoiled plasmid pNO1 DNA incubated for 30 mins by fluorescence based analysis
HCT-15 = experiment: Cytotoxicity against human HCT-15 cells assessed as reduction in cell viability at 10 uM by MTT assay; type: functional, cell-based
HCT-116 = experiment: Cytotoxicity against human HCT-116 cells assessed as reduction in cell viability at 10 uM by MTT assay; type: functional, cell-based
[3] = Thermodynamic aqueous solubility of compound in PBS buffer at pH 7.4 at 25 degreeC measured after 24 hrs by UPLC analysis; type: physicochemical; details: read-out: Therm_solubility
CCRF-CEM = experiment: Cytotoxicity against human CCRF-CEM cells assessed as reduction in cell viability at 10 uM by MTT assay; type: functional, cell-based
COLO 205 = experiment: Cytotoxicity against human COLO 205 cells assessed as reduction in cell viability at 10 uM by MTT assay; type: functional, cell-based
K562 = experiment: Cytotoxicity against human K562 cells assessed as reduction in cell viability at 10 uM by MTT assay; type: functional, cell-based
HT-29 = experiment: Cytotoxicity against human HT-29 cells assessed as reduction in cell viability at 10 uM by MTT assay; type: functional, cell-based
MOLT-4 = experiment: Cytotoxicity against human MOLT-4 cells assessed as reduction in cell viability at 10 uM by MTT assay; type: functional, cell-based
HL-60 = experiment: Cytotoxicity against human HL-60 cells assessed as reduction in cell viability at 10 uM by MTT assay; type: functional, cell-based
[4] = target: T1, DNA topoisomerase 2-alpha; experiment: Inhibition of human DNA topoisomerase 2 alpha assessed as ATP hydrolysis measured for 30 mins by absorbance based assay
DNA topoisomerase 1 = target: T2, DNA topoisomerase 1 (Homo sapiens, UniProt P11387); experiment: Inhibition of human DNA Topoisomerase 1 assessed as relaxation of supercoiled plasmid pBR322 DNA incubated for 30 mins by ethidium bromide staining based agarose gel electrophoresis
T2 sequence (P11387 whole entry): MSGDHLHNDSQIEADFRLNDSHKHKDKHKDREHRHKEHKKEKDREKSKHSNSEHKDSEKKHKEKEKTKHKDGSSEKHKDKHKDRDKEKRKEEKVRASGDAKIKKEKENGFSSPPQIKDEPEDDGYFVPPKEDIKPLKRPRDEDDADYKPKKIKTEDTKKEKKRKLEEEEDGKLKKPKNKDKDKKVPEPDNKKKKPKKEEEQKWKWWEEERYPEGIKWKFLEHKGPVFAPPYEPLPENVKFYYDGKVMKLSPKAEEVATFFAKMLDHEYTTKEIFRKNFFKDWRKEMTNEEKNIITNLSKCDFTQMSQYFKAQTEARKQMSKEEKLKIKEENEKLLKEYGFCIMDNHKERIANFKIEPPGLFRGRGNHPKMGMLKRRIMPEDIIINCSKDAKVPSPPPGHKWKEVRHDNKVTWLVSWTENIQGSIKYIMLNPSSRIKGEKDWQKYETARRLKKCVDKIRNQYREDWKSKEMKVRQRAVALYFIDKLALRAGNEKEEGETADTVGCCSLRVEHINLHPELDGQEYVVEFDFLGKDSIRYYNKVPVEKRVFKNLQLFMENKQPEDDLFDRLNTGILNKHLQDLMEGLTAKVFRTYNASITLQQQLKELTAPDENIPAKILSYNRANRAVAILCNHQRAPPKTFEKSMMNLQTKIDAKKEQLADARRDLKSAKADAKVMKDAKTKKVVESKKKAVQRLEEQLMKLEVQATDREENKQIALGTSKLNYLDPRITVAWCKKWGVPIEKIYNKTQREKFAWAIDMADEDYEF

DNA topoisomerase 2-beta = DNA topoisomerase 2-beta (Homo sapiens, UniProt Q02880); experiment: Inhibition of human DNA topoisomerase 2 beta assessed as relaxation of supercoiled plasmid pBR322 DNA incubated for 30 mins by ethidium bromide staining based agarose gel electrophoresis
Sequence of DNA topoisomerase 2-beta (Q02880 whole entry): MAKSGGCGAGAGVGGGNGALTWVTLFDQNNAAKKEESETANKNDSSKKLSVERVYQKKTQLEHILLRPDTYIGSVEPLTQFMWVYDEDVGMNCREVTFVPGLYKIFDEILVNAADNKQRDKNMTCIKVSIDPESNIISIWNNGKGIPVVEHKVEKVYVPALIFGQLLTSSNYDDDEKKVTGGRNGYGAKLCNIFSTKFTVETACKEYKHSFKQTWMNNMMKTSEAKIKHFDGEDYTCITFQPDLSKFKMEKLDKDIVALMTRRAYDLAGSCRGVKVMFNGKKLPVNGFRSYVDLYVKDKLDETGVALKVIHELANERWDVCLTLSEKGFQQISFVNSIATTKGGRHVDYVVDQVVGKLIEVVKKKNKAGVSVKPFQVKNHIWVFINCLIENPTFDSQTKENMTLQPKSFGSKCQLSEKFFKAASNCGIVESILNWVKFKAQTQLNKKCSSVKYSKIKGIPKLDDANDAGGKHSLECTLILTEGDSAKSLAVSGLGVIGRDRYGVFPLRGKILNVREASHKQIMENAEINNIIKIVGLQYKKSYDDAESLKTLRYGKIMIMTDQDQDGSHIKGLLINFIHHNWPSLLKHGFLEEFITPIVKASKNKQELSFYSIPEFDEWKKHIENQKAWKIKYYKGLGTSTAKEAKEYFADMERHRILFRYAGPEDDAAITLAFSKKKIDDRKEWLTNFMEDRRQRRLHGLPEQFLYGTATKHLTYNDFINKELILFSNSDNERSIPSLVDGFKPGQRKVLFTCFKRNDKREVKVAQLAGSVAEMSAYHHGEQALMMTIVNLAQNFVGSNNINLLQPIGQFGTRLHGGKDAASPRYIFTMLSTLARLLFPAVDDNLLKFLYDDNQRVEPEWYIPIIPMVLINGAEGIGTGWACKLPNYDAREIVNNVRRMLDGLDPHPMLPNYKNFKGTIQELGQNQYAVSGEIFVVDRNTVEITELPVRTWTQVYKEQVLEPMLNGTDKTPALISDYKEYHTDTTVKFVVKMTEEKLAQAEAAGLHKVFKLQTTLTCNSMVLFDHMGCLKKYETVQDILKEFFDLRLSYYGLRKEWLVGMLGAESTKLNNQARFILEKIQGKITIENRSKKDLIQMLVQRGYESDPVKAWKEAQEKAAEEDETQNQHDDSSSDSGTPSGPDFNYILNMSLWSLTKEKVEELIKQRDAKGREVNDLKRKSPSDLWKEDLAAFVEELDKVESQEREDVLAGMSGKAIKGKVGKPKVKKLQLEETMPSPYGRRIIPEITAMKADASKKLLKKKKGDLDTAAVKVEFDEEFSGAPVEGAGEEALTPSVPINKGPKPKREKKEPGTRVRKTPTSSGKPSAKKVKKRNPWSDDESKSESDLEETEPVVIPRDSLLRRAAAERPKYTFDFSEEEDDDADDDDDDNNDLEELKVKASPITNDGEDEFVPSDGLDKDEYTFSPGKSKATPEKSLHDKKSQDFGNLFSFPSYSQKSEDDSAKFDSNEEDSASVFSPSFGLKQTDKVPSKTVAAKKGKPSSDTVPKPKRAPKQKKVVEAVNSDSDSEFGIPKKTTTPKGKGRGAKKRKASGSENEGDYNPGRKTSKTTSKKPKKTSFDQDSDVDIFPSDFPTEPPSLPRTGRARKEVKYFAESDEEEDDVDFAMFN

T1 sequence (P11388 whole entry): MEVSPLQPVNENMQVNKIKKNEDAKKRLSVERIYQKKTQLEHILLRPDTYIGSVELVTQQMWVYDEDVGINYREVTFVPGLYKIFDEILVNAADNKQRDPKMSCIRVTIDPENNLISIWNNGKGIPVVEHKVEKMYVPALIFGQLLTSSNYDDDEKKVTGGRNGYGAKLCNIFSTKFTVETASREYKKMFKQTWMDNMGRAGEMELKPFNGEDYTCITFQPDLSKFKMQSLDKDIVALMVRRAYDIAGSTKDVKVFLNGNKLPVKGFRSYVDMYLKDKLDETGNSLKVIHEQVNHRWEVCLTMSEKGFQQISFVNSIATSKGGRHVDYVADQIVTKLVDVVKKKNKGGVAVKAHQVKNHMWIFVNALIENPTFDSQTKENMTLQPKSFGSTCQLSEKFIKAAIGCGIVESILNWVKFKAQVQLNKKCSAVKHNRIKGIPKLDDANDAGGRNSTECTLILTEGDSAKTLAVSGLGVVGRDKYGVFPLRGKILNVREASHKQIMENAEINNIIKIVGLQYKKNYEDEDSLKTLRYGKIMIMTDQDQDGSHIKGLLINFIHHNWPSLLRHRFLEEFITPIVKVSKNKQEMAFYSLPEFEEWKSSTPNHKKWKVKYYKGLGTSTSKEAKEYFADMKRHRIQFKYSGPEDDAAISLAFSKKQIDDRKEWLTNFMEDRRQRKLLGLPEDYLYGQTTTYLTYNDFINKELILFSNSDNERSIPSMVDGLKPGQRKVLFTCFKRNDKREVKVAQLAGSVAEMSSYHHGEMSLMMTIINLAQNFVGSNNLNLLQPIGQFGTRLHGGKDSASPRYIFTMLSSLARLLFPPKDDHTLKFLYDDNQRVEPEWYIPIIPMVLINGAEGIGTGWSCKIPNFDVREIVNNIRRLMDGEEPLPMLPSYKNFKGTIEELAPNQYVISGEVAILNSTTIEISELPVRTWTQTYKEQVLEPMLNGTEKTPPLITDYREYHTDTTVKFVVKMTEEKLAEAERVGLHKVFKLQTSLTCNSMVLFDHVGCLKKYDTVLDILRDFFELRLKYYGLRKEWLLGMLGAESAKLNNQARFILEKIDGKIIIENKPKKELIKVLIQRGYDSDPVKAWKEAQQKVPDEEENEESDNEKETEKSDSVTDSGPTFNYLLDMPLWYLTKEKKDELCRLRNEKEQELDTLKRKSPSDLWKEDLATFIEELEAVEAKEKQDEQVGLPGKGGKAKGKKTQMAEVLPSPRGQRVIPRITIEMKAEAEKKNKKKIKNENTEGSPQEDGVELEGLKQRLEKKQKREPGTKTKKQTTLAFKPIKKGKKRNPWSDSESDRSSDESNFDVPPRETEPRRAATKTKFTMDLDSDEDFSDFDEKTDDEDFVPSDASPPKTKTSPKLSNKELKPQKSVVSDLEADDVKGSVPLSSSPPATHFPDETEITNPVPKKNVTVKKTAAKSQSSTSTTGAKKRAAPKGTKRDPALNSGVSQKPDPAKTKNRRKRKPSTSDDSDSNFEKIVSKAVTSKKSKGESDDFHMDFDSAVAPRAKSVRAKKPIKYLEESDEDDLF

Cc1[nH]c(C(=O)Nc2ccc(C(=O)NCCN)cc2OC(C)C)c(Cl)c1Cl.Cl
Activity (HCC 2998): Active | Activity (SW-620): Active | half-life at 100 µM [1]: > 5 h | Activity (KM12): Active | Activity (SR): Active | IC50 [2]: 6000 nM | Activity (HCT-15): Active | Activity (HCT-116): Active | solubility thermodynamic at 24 h [3]: 16 µM | Activity (CCRF-CEM): Active | Activity (COLO 205): Active | Activity (K562): Active | Activity (HT-29): Active | Activity (MOLT-4): Active | Activity (HL-60): Active | IC50 [4]: 2800 nM

Cc1[nH]c(C(=O)Nc2ccc(C(N)=O)cc2OCc2ccc(C(=O)NCCN)cc2)c(Cl)c1Cl.Cl.Cl
half-life at 100 µM [1]: 1.67 h | IC50 (DNA topoisomerase 1): > 5000 nM | IC50 [2]: 670 nM | IC50 (DNA topoisomerase 2-beta): 550 nM | solubility thermodynamic at 24 h [3]: 9.2 µM
